The values that follow come from article PMC10826043 (BMC Complementary Medicine and Therapies, 2024).

Series [1] concerns the target T1, α-amylase from porcine pancreas (Sus scrofa, UniProt P00690).
T1 construct: α-amylase from porcine pancreas (A3176); purchased Sigma-Aldrich (Germany) A3176; host or cells: porcine pancreas (tissue-derived)
T1 sequence (P00690 16-511): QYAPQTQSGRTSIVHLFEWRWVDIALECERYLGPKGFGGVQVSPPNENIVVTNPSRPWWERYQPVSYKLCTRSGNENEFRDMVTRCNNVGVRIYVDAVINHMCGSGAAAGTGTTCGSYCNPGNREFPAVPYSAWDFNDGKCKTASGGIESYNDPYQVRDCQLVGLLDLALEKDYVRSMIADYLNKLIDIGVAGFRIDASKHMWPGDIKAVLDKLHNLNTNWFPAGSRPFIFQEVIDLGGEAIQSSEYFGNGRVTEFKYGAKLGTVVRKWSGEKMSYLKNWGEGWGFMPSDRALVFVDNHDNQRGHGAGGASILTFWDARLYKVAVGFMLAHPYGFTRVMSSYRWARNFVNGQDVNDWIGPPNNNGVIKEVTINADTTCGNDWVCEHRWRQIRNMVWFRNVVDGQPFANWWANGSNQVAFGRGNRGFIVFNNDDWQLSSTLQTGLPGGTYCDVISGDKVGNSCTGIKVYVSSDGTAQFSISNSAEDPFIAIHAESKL
Nature of the series: In vitro pancreatic α-amylase inhibitory assay (starch/DNS, 540 nm). Format: biochemical. To be noted: 1% starch, pH 6.9, 25 °C, read-out: IC50 (α-amylase inhibition). The method, then:
Analytical purity grade solvents were used throughout the study.
With reference to the established technique, the assay was carried out quantitatively with minor adjustments. Initially, 500µL test solution was preincubated with 500µL α-amylase solution (0.55 unit/mL) at 25°C for 10 min. The α-amylase was prepared in a buffer solution (0.02M sodium phosphate pH 6.9 with 0.006M NaCl). Afterwards, 500µL of 1% w/v starch in buffer solution was mixed in and left to incubate for 10 min at 25°C. To bring the reaction to a halt, 1mL dinitrosalicylic acid (DNS) was introduced and the mixture was placed in a boiling water bath for 3.5 min. After cooling to room temperature, the mixture was then diluted using 10mL distilled water and absorbance was measured using a Laxco spectrophotometer (α1502, Laxco Inc., USA) at λ 540nm. Blanks used throughout the experiment were made by adding pure buffer instead of α-amylase solution. […] To calculate the pancreatic α-amylase inhibitory activity, the following equation was used: %Inhibtion=100×1-Abs540nmExtract-Abs540nmPositivecontrol/Abs540nmNegativecontrol-Abs540nmPositivecontrol

Series [2] concerns the target T2, α-amylase (Sus scrofa, UniProt P00690).
T2 construct: α-amylase from porcine pancreas (A3176); purchased Sigma-Aldrich (Germany) A3176; host or cells: porcine pancreas (tissue-derived)
T2 sequence (P00690 16-511): T1 sequence (P00690 16-511)
The series can be described thus: Combination analysis of α-amylase inhibition (CompuSyn: median-effect, isobologram, CI, DRI). Format: biochemical, porcine. To be noted: for Dose (mM) Kaempferol: kaempferol alone. An excerpt:
These include: median effect, isobolographic, combination index, and lastly, dose reduction index analyses.
Data input included each inhibitors’ independent activity and the summation of both inhibitors’ activity when used in conjunction of each other. […] 2.6.
This method of analysis relies on its namesake equation, the median-effect equation which stems from the general mass-action law principle. Each inhibitor’s sigmoidal dose–effect plot was individually generated in addition to their respective combination. Thereafter, the plot was transfigured linearly into median-effect plots. The median-effect equation is described as: fa/fu=D/Dm^m
D represents the dose of the inhibitor, Dm is the inhibitor’s dose causing a decrease of 50% in the enzyme’s activity, fa is the fraction affected by dose D , fu is the unaffected fraction ( fu = 1 – fa ), and m the curve’s sigmoidicity coefficient. Through logarithmic transformation, the equation becomes: Logfa/fu=mlogD-mlog(Dm)
This, in turn, results in the median-effect plot. A plot where y=log(fa/fu) against x=log(D) with m being the slope and log(Dm) , the x-intercept. Dm and m are obtained from the median-effect plot. To determine the data’s conformity to the general mass-action principle, the linear correlation coefficient (r) of the plot is assessed.
Using each inhibitor’s individual effect, this method of analysis is employed to assess the combined effect of two inhibitors. A graph, wherein the x- and y- axes represent the doses of inhibitors A and B, respectively, is plotted. The doses, a and b denote the dose of inhibitor A and B, respectively, resulting in the same efficacy when used individually. (e.g.: At x % inhibition, a = CA,x and b = CB,x ). To assess the combined effects of inhibitors A and B, an additive line must first be established. This is accomplished by connecting two points of the same efficacy (e.g.: connecting a with b). Based on the respective position of the combination data points relative to the additive line, the nature of the interaction can be determined; synergism, addition, or antagonism are indicated by data points lying below, on, or above the additive line, respectively.
The combination index (CI) quantitatively evaluates the type of interaction between two inhibitors at a series of inhibition levels. CI is calculated by means of the following equation [38]: CI=CA,x/ICx,A+CB,x/ICx,B Where ICx,A and ICx,B are the doses of inhibitors A and B, respectively, required to produce x % inhibition when each inhibitor is used individually. Whereas CA,x and CB,x are the doses of inhibitors A and B, respectively, required to produce x % inhibition when a binary mixture is used. Based on the resulting CI, the nature of the inhibitors’ interaction can be concluded. A CI lower than, equal to, or greater than 1 is indicative of synergism, addition, or antagonism, respectively. Alternatively, the interaction present between the two inhibitors can be deduced via the combination index ( fa -CI) plot.
The dose reduction index (DRI) was calculated for synergistic binary combinations to measure the fold decrease in the dose of each inhibitor at a given effect level, relative to the dose of each inhibitor when used solitarily resulting in the same effect. DRI can be calculated as follows: DRI=IC50[solitaryinhibitor]/IC50[inhibitorincombination]
DRI values > 1 are favored, reflecting a decrease in dose while maintaining or enhancing the inhibitor’s efficacy.

In series [3] the target is α-amylase. Conditions: validation set, supplement ref [3]; cited from earlier work.
For series [4] the following is noted: study encompassing 714 medicated patients; ref [10]; cited from earlier work.

For `O=c1c(O)c(-c2ccc(O)cc2)oc2cc(O)cc(O)c12` [Kaempferol], the IC50 is 4.84 ± 0.14 mM in series [1], 4.84 mM on α-amylase [2] and 0.0165 ± 0.00184 mM on α-amylase [3]. Besides, on α-amylase [2], the “m (slope of median-effect plot)” value is reported as 1.18. On α-amylase [2], the “r (correlation coefficient of median-effect plot)” value was 1.00. For the same compound, the “DRI Kaempferol” value on α-amylase [2] (fold dose reduction in combination with acarbose at 26% inhibition) is listed as 2.66; at α-amylase [2] (fold dose reduction in combination with acarbose at 86% inhibition) it was 2.27; on α-amylase [2] (fold dose reduction in combination with acarbose at 91% inhibition) it was 1.11. In addition, the entries for the “Dose (mM) Kaempferol” value at α-amylase [2] (dose needed for 26% inhibition), at α-amylase [2] (dose needed for 86% inhibition) and on α-amylase [2] (dose needed for 91% inhibition) were 1.99 mM, 22.6 mM and 34.5 mM, respectively.
Consider `C[C@H]1O[C@H](O[C@H]2[C@H](O)[C@@H](O)[C@@H](O[C@H]3[C@H](O)[C@@H](O)C(O)O[C@@H]3CO)O[C@@H]2CO)[C@H](O)[C@@H](O)[C@@H]1N[C@H]1C=C(CO)[C@@H](O)[C@H](O)[C@H]1O` (stereo partly drawn) [Acarbose], for which, in series [4], the “participants who discontinued acarbose due to gastrointestinal side effects” value was 19%.

One may read the IC50 as the midpoint of a concentration-inhibition curve.
